The record followed here is ChEMBL document CHEMBL4177579, “Eudesmane sesquiterpenes from Chinese liverwort are substrates of Cdrs and display antifungal activity by targeting Erg6 and Erg11 of Candida albicans” (Bioorg Med Chem, 2017).

Values after ≈ are worked out from the molar mass of the structure shown. Bounds are passed on as bounds.

The subject of series [1] is Candida albicans. The experiment in a line: Antifungal activity against Candida albicans SC5314 incubated for 48 hrs by alamar blue assay. Format: functional. The following applies: SC5314, 48 h. (Alamar Blue is a resazurin reagent that responds to reducing activity.)
Series [2] relates to Candida albicans. The experiment in a line: Antifungal activity against CDR1 deficient Candida albicans DSY448 incubated for 48 hrs by alamar blue assay. Format: functional. The conditions noted are these: DSY448, 48 h.
Series [3] concerns Candida albicans. The experiment in a line: Antifungal activity against MDR1 deficient Candida albicans DSY465 incubated for 48 hrs by alamar blue assay. Format: functional. The conditions noted are these: DSY465, 48 h.
For series [4], the system named is Candida albicans. The series is described as follows: Antifungal activity against CDR2 deficient Candida albicans DSY653 incubated for 48 hrs by alamar blue assay. Format: functional. The conditions noted are these: DSY653, 48 h.
Series [5] relates to Candida albicans. The experiment in a line: Antifungal activity against CDR1 and CDR2 deficient Candida albicans DSY654 incubated for 48 hrs by alamar blue assay. Format: functional. The conditions noted are these: DSY654, 48 h.
For series [6], the system named is Candida albicans. The series is described as follows: Inhibition of the yeast-to-hyphal transition in CDR1 and CDR2 deficient Candida albicans DSY654 incubated for 5 days grown in liquid RPMI 1640 medium by microphotography. Format: functional, organism-based.
The test system of series [7] is Candida albicans. The experiment in a line: Inhibition of the yeast-to-hyphal transition in CDR1 and CDR2 deficient Candida albicans DSY654 incubated for 5 days grown in solid SD medium by microphotography. Format: functional, organism-based.
Series [8] concerns Candida albicans. The series is described as follows: Drug accumulation in CDR1 and CDR2 deficient Candida albicans DSY654 at 16 ug/ml incubated for 10 hrs by HPLC method relative to wild type Candida albicans SC5314. The conditions noted are these: in vivo. Format: ADME, organism-based.
Series [9] concerns Candida albicans. The experiment in a line: Drug accumulation in Candida albicans SC5314 at 16 ug/ml incubated for 10 hrs in presence of 16 ug/ml CDR inhibitor RD by HPLC method relative to untreated control. Format: ADME, organism-based. The following applies: in vivo.
In series [10] the test system is Candida albicans. The experiment in a line: Inhibition of ERG6/ERG11 in CDR1 and CDR2 deficient Candida albicans DSY654 assessed as induction of alteration in sterol composition by measuring ergosterol level at 16 ug/ml incubated for 10 hrs by GC-MS method (reference value: 55.60 +/- 0.29%). The arrangement: scale not given: the % may be the effect or the level left.

The test system of series [11] is Candida albicans. The series is described as follows: Inhibition of ERG6/ERG11 in CDR1 and CDR2 deficient Candida albicans DSY654 assessed as induction of alteration in sterol composition by measuring zymosterol level at 16 ug/ml incubated for 10 hrs by GC-MS method (reference value: 2.78 +/- 0.53%). The arrangement: scale not given: the % may be the effect or the level left.

For series [12], the system named is Candida albicans. The series is described as follows: Inhibition of ERG6/ERG11 in CDR1 and CDR2 deficient Candida albicans DSY654 assessed as induction of alteration in sterol composition by measuring fecosterol level at 16 ug/ml incubated for 10 hrs by GC-MS method (reference value: 8.36 +/- 0.3%). More on the design: scale not given: the % may be the effect or the level left.

Series [13] deals with Candida albicans. The series is described as follows: Inhibition of ERG6/ERG11 in CDR1 and CDR2 deficient Candida albicans DSY654 assessed as induction of alteration in sterol composition by measuring lanosterol level at 16 ug/ml incubated for 10 hrs by GC-MS method (reference value: 1.63 +/- 0.28%). The arrangement: scale not given: the % may be the effect or the level left.

Series [14] has as its system Candida albicans. The series is described as follows: Inhibition of ERG6/ERG11 in CDR1 and CDR2 deficient Candida albicans DSY654 assessed as feedback mechanism based up-regulation of ERG6 mRNA expression at 16 ug/ml incubated for 10 hrs by qPCR method relative to untreated control.
Series [15] deals with Candida albicans. The series is described as follows: Inhibition of ERG6/ERG11 in CDR1 and CDR2 deficient Candida albicans DSY654 assessed as feedback mechanism based up-regulation of ERG11 mRNA expression at 16 ug/ml incubated for 10 hrs by qPCR method relative to untreated control. (Quantitative PCR measures a nucleic acid by following its amplification.)

A word on the MIC80: it is the lowest concentration that inhibits either 80% of growth or 80% of the strains tested, depending on the study.

Regarding `C=C1CCC[C@@]2(C)C[C@@H]3OC(=O)[C@](CO)(OCC)[C@@H]3C[C@H]12`, the MIC80 in the series on Candida albicans [1], against Candida albicans [2], in the series with Candida albicans [3], against Candida albicans [4] and with Candida albicans [5] was above 128 µg/mL in each case.
As for `C=C1CCC[C@@]2(C)C[C@@H]3OC(=O)[C@]4(CO4)[C@@H]3C[C@H]12`, the MIC80 in the series with Candida albicans [1], in the series with Candida albicans [2], against Candida albicans [3], in the series on Candida albicans [4] and against Candida albicans [5] was above 128 µg/mL each time.
On to `C=C1CCC[C@@]2(C)C[C@@H]3OC(=O)[C@@H](C)[C@@H]3C[C@H]12`, for which the MIC80 in the series on Candida albicans [1], in the series on Candida albicans [2], against Candida albicans [3], in the series on Candida albicans [4] and in the series on Candida albicans [5] was above 128 µg/mL throughout.
`C=C(C)[C@@H]1C[C@@]2(C(C)=O)C[C@@H](O)C[C@@]2(C)C[C@@H]1O`: the MIC80 against Candida albicans [1], in the series with Candida albicans [2], against Candida albicans [3], in the series with Candida albicans [4] and against Candida albicans [5] was above 128 µg/mL each time.
Consider `C=C(CO)[C@H]1CC[C@]2(C)CCCC(=C)[C@H]2[C@H]1O`, for which the MIC80 was above 128 µg/mL against Candida albicans [1]; above 128 µg/mL in the series with Candida albicans [2]; above 128 µg/mL against Candida albicans [3]; above 128 µg/mL against Candida albicans [4]; 64 µg/mL (≈ 271 µM) in the series on Candida albicans [5].
For `CC1(C)C[C@H](O)C[C@@]2(C)OC(=O)C=C12` [LOLIOLIDE], the MIC80 with Candida albicans [1], against Candida albicans [2], with Candida albicans [3], in the series with Candida albicans [4] and with Candida albicans [5] was above 128 µg/mL each time.
Regarding `C=C1CCC[C@@]2(C)C[C@H](O)[C@H](C(=C)C)C[C@H]12`, the MIC80 in the series with Candida albicans [1] is above 128 µg/mL; against Candida albicans [2], above 128 µg/mL; against Candida albicans [3] it was above 128 µg/mL; in the series with Candida albicans [4], above 128 µg/mL; in the series with Candida albicans [5], 64 µg/mL (≈ 290 µM).
For `C=C1CCC[C@@]2(C)C[C@@H]3OC(=O)[C@@](C)(O)[C@@H]3C[C@H]12`, the MIC80 against Candida albicans [1] was above 128 µg/mL; in the series on Candida albicans [2], above 128 µg/mL; in the series on Candida albicans [3] it was above 128 µg/mL; against Candida albicans [4], above 128 µg/mL; in the series on Candida albicans [5] it was 32 µg/mL (≈ 128 µM).
As to `C=C1CCC[C@@]2(C)C[C@@H]3OC(=O)C(=C)[C@@H]3C[C@H]12`, the MIC80 against Candida albicans [1] is above 128 µg/mL; with Candida albicans [2], above 128 µg/mL; against Candida albicans [3], above 128 µg/mL; against Candida albicans [4] it was above 128 µg/mL; in the series on Candida albicans [5] it was 16 µg/mL (≈ 68.9 µM). For the same compound, the inhibition entry in the series with Candida albicans [6] and with Candida albicans [7] was “Dose-dependent effect” throughout. Further, the “fold change (FC)” value in the series on Candida albicans [8] was 4.95; in the series on Candida albicans [9] it was 10.4; in the series on Candida albicans [14], 9.3; in the series with Candida albicans [15], 2.7. Also, the Activity was determined as 33.7% in the series with Candida albicans [10], 10.8% in the series on Candida albicans [11], 6.16% with Candida albicans [12] and 17.2% in the series on Candida albicans [13].
Turning to `C=C1CCC[C@@]2(C)C[C@@]3(O)OC(=O)C(C)=C3C[C@H]12`, the MIC80 against Candida albicans [1] is above 128 µg/mL; with Candida albicans [2], above 128 µg/mL; with Candida albicans [3], above 128 µg/mL; in the series on Candida albicans [4] it was above 128 µg/mL; in the series on Candida albicans [5], 64 µg/mL (≈ 258 µM).
Take `CC1=CCC[C@@]2(C)C[C@@H]3OC(=O)[C@H](C)[C@@H]3C[C@H]12`: the MIC80 with Candida albicans [1], against Candida albicans [2], against Candida albicans [3], with Candida albicans [4] and with Candida albicans [5] was above 128 µg/mL throughout.
`CC1=CC(=O)C[C@@]2(C)CC[C@](O)(C(C)C)C[C@H]12`: the MIC80 against Candida albicans [1], with Candida albicans [2], in the series with Candida albicans [3], in the series with Candida albicans [4] and against Candida albicans [5] was above 128 µg/mL each time.
